Laboratory results: patent US20120231097A1, “MEDICINAL COMPOSITION AND USAGE” (priority 2009, published 2012)

Test system: human colon cancer cell strain colon 38
Assay: Anti-tumor effect with 5-fluorouracil in human cancer xenograft tumor animal model
Type: in vivo
Details: after 4 weeks
Description: According to methods described in “Methodology in Pharmacological Research of Traditional Chinese Medicine” (People's Medical Publishing House), test the anti-tumor effects of Formula A, B, C, D traditional Chinese medicine composition prepared from Embodiment 1-4 along with chemotherapy drugs (5-fluorouracil) for human cancer xenograft tumor animal model. 5-fluorouracil (fu) is broad spectrum anti-tumor medicine, it is mainly used to treat digestive tract tumor, commonly seen adverse reactions include nausea, reduced appetite or vomit, abdomen discomfort or diarrhea. About the test method, use human colon cancer cell strain colon 38 to inoculate subcutaneously in 18-23 g mouse, 14 days after the inoculation, respectively ingest Formula A, B, C, D traditional Chinese medicine composition prepared from Embodiment 1-4 into the stomach of each group of animals, the dosage is 500 mg/kg; 0.5-1 hour after stomach ingestion, inject 5-fluorouracil into abdomen, the dosage is 30 mg/kg. Execute stomach ingestion and drug injection twice each week, totaling 4 weeks.

O=c1[nH]cc(F)c(=O)[nH]1 [fu, 5-fluorouracil]
Average tumor weight (formula 500 mg/kg into stomach, fu 30 mg/kg into abdomen, twice each week): 0.42 ± 0.11 g
Death number (of 10 supplied mice): 5
Tumor inhibition rate (%) (versus CK group's average tumor weight): 64%
